Measured values as given in PubChem BioAssay (NCI).
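Abbreviation: GI50, concentration required for 50% inhibition of growth. TGI is the concentration that stops growth completely.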

Legend:
Assay in all cases: NCI tumour cell line growth inhibition, 384-well format
UACC-62 melanoma = system: UACC-62 melanoma
SN12C renal = system: SN12C renal
LOX IMVI melanoma = system: LOX IMVI melanoma
CAKI-1 renal = system: CAKI-1 renal
KM12 colon = system: KM12 colon
MCF7 breast = system: MCF7 breast
NCI-H23 lung = system: NCI-H23 lung
NCI-H226 lung = system: NCI-H226 lung
HL-60(TB) leukemia = system: HL-60(TB) leukemia
MDA-MB-231 breast = system: MDA-MB-231 breast
SK-MEL-5 melanoma = system: SK-MEL-5 melanoma
U251 glioblastoma = system: U251 glioblastoma
SNB-19 CNS = system: SNB-19 CNS
SNB-75 CNS = system: SNB-75 CNS
HCC-2998 colon = system: HCC-2998 colon
ACHN renal = system: ACHN renal
SK-MEL-28 melanoma = system: SK-MEL-28 melanoma
TK-10 renal = system: TK-10 renal
NCI-H460 NSCLC = system: NCI-H460 NSCLC
K-562 leukemia = system: K-562 leukemia
786-0 renal = system: 786-0 renal
HOP-62 NSCLC = system: HOP-62 NSCLC
IGROV1 ovarian = system: IGROV1 ovarian
MDA-MB-435 melanoma = system: MDA-MB-435 melanoma
SK-OV-3 ovarian = system: SK-OV-3 ovarian
RXF 393 renal = system: RXF 393 renal
UACC-257 melanoma = system: UACC-257 melanoma
A498 renal = system: A498 renal
OVCAR-5 ovarian = system: OVCAR-5 ovarian
PC-3 prostate = system: PC-3 prostate

## Cc1ccc(-n2nc(C(C)(C)C)cc2NC(=O)NCc2cc(F)ccc2Oc2ccc3c(cnn3CCO)c2)cc1
UACC-62 melanoma
  TGI: 5.74 µM
SN12C renal
  GI50: 3.94 µM
  TGI: 33 µM
LOX IMVI melanoma
  GI50: 1.62 µM
  TGI: 4.41 µM
CAKI-1 renal
  GI50: 3.07 µM
  TGI: > 100 µM
KM12 colon
  GI50: 1.56 µM
  TGI: 11.9 µM
MCF7 breast
  GI50: 2.7 µM
  TGI: 14.3 µM
NCI-H23 lung
  GI50: 1.78 µM
  TGI: 6.08 µM
NCI-H226 lung
  GI50: 0.44 µM
  TGI: 13.3 µM
HL-60(TB) leukemia
  GI50: 1.67 µM
  TGI: 4.48 µM
MDA-MB-231 breast
  GI50: 3.17 µM
  TGI: > 100 µM
SK-MEL-5 melanoma
  GI50: 1.06 µM
  TGI: 6.63 µM
U251 glioblastoma
  GI50: 10.3 µM
  TGI: > 100 µM
SNB-19 CNS
  GI50: 29.1 µM
  TGI: > 100 µM
SNB-75 CNS
  GI50: 12.2 µM
  TGI: 89 µM
HCC-2998 colon
  GI50: 3.47 µM
  TGI: 13.2 µM
ACHN renal
  GI50: 3.28 µM
  TGI: 62.9 µM
SK-MEL-28 melanoma
  GI50: 1.26 µM
  TGI: 4.32 µM
TK-10 renal
  GI50: 13.9 µM
  TGI: 87.4 µM
NCI-H460 NSCLC
  GI50: 6.4 µM
  TGI: 20.6 µM
K-562 leukemia
  TGI: 0.0258 µM
786-0 renal
  GI50: 4.93 µM
  TGI: > 100 µM
HOP-62 NSCLC
  GI50: 4.67 µM
  TGI: 27.1 µM
IGROV1 ovarian
  GI50: 2.39 µM
  TGI: 18 µM
MDA-MB-435 melanoma
  GI50: 2.74 µM
  TGI: 89.2 µM
SK-OV-3 ovarian
  GI50: 9.15 µM
  TGI: > 100 µM
RXF 393 renal
  GI50: 3.38 µM
  TGI: 14.5 µM
UACC-257 melanoma
  GI50: 1.87 µM
  TGI: 5.7 µM
A498 renal
  GI50: 8.98 µM
  TGI: 71.8 µM
OVCAR-5 ovarian
  GI50: 4.52 µM
  TGI: 50.9 µM
PC-3 prostate
  GI50: 6.72 µM
  TGI: 53.1 µM
